Like-named read-outs stand apart in the source and are kept apart here.
What was measured:
Salmonella typhimurium [1] = assay: Example 1: effect of pH buffering of acetic and propionic acid on antimicrobial activity in water; type: cell-based
Method: Propionic and acetic acids were buffered with ammonium hydroxide to pHs ranging from 1 to 7. Acid contents of the buffered solutions were determined by a weight to weight ratio calculation to obtain the same acid content in the test solutions. […] The pHs of the deionized water solutions were recorded and any problems with solubility noted.
100 ul of a nutrient broth culture of Salmonella typhimurium was added to each dilution tube. After addition, tubes were vortexed and allowed to stand. At 4 and 24 hours after addition of the inoculum, 100 ul of the solution was plated on Standard Plate agar (triplicate plates). Plates were incubated at 37° C. for 24 hours prior to enumeration. The minimum effective dose of each acid was determined by linear regression.

Salmonella typhimurium [2] = assay: Example 2: effect of carbon chain length of individual organic acids on antimicrobial activity in water; type: cell-based; design: MIC at 4 HR / MIC at 24 FIR: unit not given here; conditions: for MIC at 4 HR / MIC at 24 FIR: Minimum Inhibitory Concentration of Organic Acids against Salmonella, by linear regression; for MIC at 24 FIR: 24 hours; for killing at […] / killing at 0.05 % / killing at 0.075 % / killing at 0.1 %: Salmonella enterica, TYPHIMURIUM
Method: 100 ul of a nutrient broth culture of Salmonella typhimurium was added to each dilution tube. After addition, tubes were vortexed and allowed to stand. At 4 and 24 hours after addition of the inoculum, 100 ul of the solution was plated on agar (triplicate plates). Plates were incubated at 37° C. for 24 hours prior to enumeration. The minimum effective dose of each acid was be determined by linear regression: […]

[3] = Product Conc. 0.025 (% acid solution in water), 4 hr
[4] = Product Conc. 0.025 (% acid solution in water), 24 hr
[5] = Product Conc. 0.05 (% acid solution in water), 4 hr
[6] = Product Conc. 0.05 (% acid solution in water), 24 hr
[7] = Product Conc. 0.075 (% acid solution in water), 4 hr
[8] = Product Conc. 0.075 (% acid solution in water), 24 hr
[9] = Product Conc. 0.1 (% acid solution in water), 4 hr
[10] = Product Conc. 0.1 (% acid solution in water), 24 hr
[11] = Product Conc. 0.025 (% acid solution in water), 4 hr, read-out: Salmonella at time Interval 4 hr % reduction
[12] = Product Conc. 0.025 (% acid solution in water), 24 hr, read-out: Salmonella at time Interval 24 hr % reduction
[13] = Product Conc. 0.05 (% acid solution in water), 4 hr, read-out: Salmonella at time Interval 4 hr % reduction
[14] = Product Conc. 0.05 (% acid solution in water), 24 hr, read-out: Salmonella at time Interval 24 hr % reduction
[15] = Product Conc. 0.075 (% acid solution in water), 4 hr, read-out: Salmonella at time Interval 4 hr % reduction
[16] = Product Conc. 0.075 (% acid solution in water), 24 hr, read-out: Salmonella at time Interval 24 hr % reduction
[17] = Product Conc. 0.1 (% acid solution in water), 4 hr, read-out: Salmonella at time Interval 4 hr % reduction
[18] = Product Conc. 0.1 (% acid solution in water), 24 hr, read-out: Salmonella at time Interval 24 hr % reduction

| SMILES | Salmonella at time Interval 4 hr % reduction (Salmonella typhimurium [1]; [3]) [%] | Salmonella at time Interval 4 hr cfu/g (Salmonella typhimurium [1]; [3]) [cfu/g] | Salmonella at time Interval 24 hr % reduction (Salmonella typhimurium [1]; [4]) [%] | Salmonella at time Interval 24 hr cfu/g (Salmonella typhimurium [1]; [4]) [cfu/g] | Salmonella at time Interval 4 hr % reduction (Salmonella typhimurium [1]; [5]) [%] | Salmonella at time Interval 4 hr cfu/g (Salmonella typhimurium [1]; [5]) [cfu/g] | Salmonella at time Interval 24 hr % reduction (Salmonella typhimurium [1]; [6]) [%] | Salmonella at time Interval 24 hr cfu/g (Salmonella typhimurium [1]; [6]) [cfu/g] | Salmonella at time Interval 4 hr % reduction (Salmonella typhimurium [1]; [7]) [%] | Salmonella at time Interval 4 hr cfu/g (Salmonella typhimurium [1]; [7]) [cfu/g] | Salmonella at time Interval 24 hr % reduction (Salmonella typhimurium [1]; [8]) [%] | Salmonella at time Interval 24 hr cfu/g (Salmonella typhimurium [1]; [8]) [cfu/g] | Salmonella at time Interval 4 hr cfu/g (Salmonella typhimurium [2]; [3]) [cfu/g] | Salmonella at time Interval 24 hr cfu/g (Salmonella typhimurium [2]; [4]) [cfu/g] | Salmonella at time Interval 4 hr cfu/g (Salmonella typhimurium [2]; [5]) [cfu/g] | Salmonella at time Interval 24 hr cfu/g (Salmonella typhimurium [2]; [6]) [cfu/g] | Salmonella at time Interval 4 hr cfu/g (Salmonella typhimurium [2]; [7]) [cfu/g] | Salmonella at time Interval 24 hr cfu/g (Salmonella typhimurium [2]; [8]) [cfu/g] | Salmonella at time Interval 4 hr cfu/g (Salmonella typhimurium [2]; [9]) [cfu/g] | Salmonella at time Interval 24 hr cfu/g (Salmonella typhimurium [2]; [10]) [cfu/g] | further results |
| --- | --- | --- | --- | --- | --- | --- | --- | --- | --- | --- | --- | --- | --- | --- | --- | --- | --- | --- | --- | --- | --- |
| CC(=O)O [Acetic pH 6, Acetic acid] | 0 | 1500 | 1 | 1167 | 0 | 1767 | 0 | 1400 | 0 | 1667 | 0 | 1400 | – | – | – | – | – | – | – | – | Salmonella at time Interval 4 hr % reduction (Salmonella typhimurium [1]; [9]): 0%; Salmonella at time Interval 4 hr cfu/g (Salmonella typhimurium [1]; [9]): 1633 cfu/g; Salmonella at time Interval 24 hr % reduction (Salmonella typhimurium [1]; [10]): 0%; Salmonella at time Interval 24 hr cfu/g (Salmonella typhimurium [1]; [10]): 1433 cfu/g |
| CC(=O)O [Acetic pH 2, Acetic acid] | 39 | 920 | 86 | 170 | 46 | 817 | 96 | 50 | 55 | 673 | 98 | 20 | – | – | – | – | – | – | – | – | MIC at 4 Hr (Salmonella typhimurium [1]; Minimum Inhibitory Concentrations, by linear regression over 0.025-0.1% acid solutions, 4 hr, pH 2): 0.142; MIC at 24 HR (Salmonella typhimurium [1]; Minimum Inhibitory Concentrations, by linear regression over 0.025-0.1% acid solutions, 24 hr, pH 2): 0.067; Salmonella at time Interval 4 hr % reduction (Salmonella typhimurium [1]; [9]): 55%; Salmonella at time Interval 4 hr cfu/g (Salmonella typhimurium [1]; [9]): 670 cfu/g; Salmonella at time Interval 24 hr % reduction (Salmonella typhimurium [1]; [10]): 99%; Salmonella at time Interval 24 hr cfu/g (Salmonella typhimurium [1]; [10]): 17 cfu/g |
| CCCCC(=O)O [Valeric acid] | – | – | – | – | – | – | – | – | – | – | – | – | 1233 | 533 | 1267 | 73 | 990 | 37 | 657 | 17 | MIC at 4 HR (Salmonella typhimurium [2]; 4 hr): 0.174; MIC at 24 FIR (Salmonella typhimurium [2]): 0.070; killing at […] (Salmonella typhimurium [2]; [11]): 23%; killing at […] (Salmonella typhimurium [2]; [12]): 69%; killing at 0.05 % (Salmonella typhimurium [2]; [13]): 21%; killing at 0.05 % (Salmonella typhimurium [2]; [14]): 96%; killing at 0.075 % (Salmonella typhimurium [2]; [15]): 38%; killing at 0.075 % (Salmonella typhimurium [2]; [16]): 98%; killing at 0.1 % (Salmonella typhimurium [2]; [17]): 59%; killing at 0.1 % (Salmonella typhimurium [2]; [18]): 99% |
| CCCCCCCCC(=O)O [Pelargonic acid/KOH, Pelargonic acid] | – | – | – | – | – | – | – | – | – | – | – | – | 7 | 0 | 0 | 0 | 0 | 0 | 0 | 0 | killing at […] (Salmonella typhimurium [2]; [11]): 100%; killing at […] (Salmonella typhimurium [2]; [12]): 100%; killing at 0.05 % (Salmonella typhimurium [2]; [13]): 100%; killing at 0.05 % (Salmonella typhimurium [2]; [14]): 100%; killing at 0.075 % (Salmonella typhimurium [2]; [15]): 100%; killing at 0.075 % (Salmonella typhimurium [2]; [16]): 100%; killing at 0.1 % (Salmonella typhimurium [2]; [17]): 100%; killing at 0.1 % (Salmonella typhimurium [2]; [18]): 100% |
| CCCCCCC(=O)O [Oenanthic acid] | – | – | – | – | – | – | – | – | – | – | – | – | 1103 | 10 | 0 | 0 | 0 | 0 | 0 | 0 | MIC at 4 HR (Salmonella typhimurium [2]; 4 hr): 0.075; MIC at 24 FIR (Salmonella typhimurium [2]): 0.063; Salmonella at time Interval 4 hr % reduction (Salmonella typhimurium [2]; [3]): 31%; Salmonella at time Interval 24 hr % reduction (Salmonella typhimurium [2]; [4]): 99%; Salmonella at time Interval 4 hr % reduction (Salmonella typhimurium [2]; [5]): 100%; Salmonella at time Interval 24 hr % reduction (Salmonella typhimurium [2]; [6]): 100%; Salmonella at time Interval 4 hr % reduction (Salmonella typhimurium [2]; [7]): 100%; Salmonella at time Interval 24 hr % reduction (Salmonella typhimurium [2]; [8]): 100%; Salmonella at time Interval 4 hr % reduction (Salmonella typhimurium [2]; [9]): 100%; Salmonella at time Interval 24 hr % reduction (Salmonella typhimurium [2]; [10]): 100% |

— patent US10785975B2, “Water and feed antimicrobial preservative” (priority 2009, dated 2020)
